Experimental data as given in article PMC6443933, “Antagonizing Retinoic Acid-Related-Orphan Receptor Gamma Activity Blocks the T Helper 17/Interleukin-17 Pathway Leading to Attenuated Pro-inflammatory Human Keratinocyte and Skin Responses” (Frontiers in Immunology, 2019).
pIC50: −log10 of the molar value.

Assays:
total human CD4+ T-cells = test: Th17 polarization of total CD4+ T-cells, cytokine ELISA; assay type: cell-based; conditions: for IL-17 concentration in Th17 cell supernatants: 72 h
Description: Total, naive and memory CD4^+ T cells were isolated from Peripheral blood mononuclear cells (PBMCs) from healthy volunteers by density gradient centrifugation using Ficoll Paque (GE). Total, naive or memory CD4^+ T-cells were prepared by immunomagnetic separation using the respective CD4^+ T-cell enrichment kits resulting in untouched highly purified subsets (EasySep™, Stem Cell). Purity was assessed by flow cytometry and was between 95 and 98% for the total CD4^+ T-cells. The purity of naive (CD45RA^+CD45RO^−) and memory (CD45RA^−CD45RO^+) CD4^+T-cells ranged between 95 and 98%, respectively. For T-cell stimulation experiments, cells were treated as previously published ([44]). Briefly, T-cells were stimulated with plate-bound monoclonal antibodies against CD3 (1 μg/ml, clone OKT-3, BioXcell) and CD28 (1 μg/ml, clone CD28.2, BioLegend). For Th17 polarization assays, IL-6 (20 ng/ml), TGF-β1 (5 ng/ml), IL-1β (10 ng/ml), and IL-23 (10 ng/ml) were added. For Th1 polarization assays, IL-12 (10 ng/ml) and anti-IL-4 antibody (5 μg/ml), for Th2 polarizations, IL-4 (10 ng/ml) and anti-IFN-γ antibody (5 μg/ml) were added. For Th0 polarization assays, cells were only stimulated with CD3 and CD28 antibodies. Supernatants were collected after 3 or 7 days of incubation for total or naive/memory CD4^+ T-cell polarizations, respectively. Cytokine concentrations were quantified by ELISA according to the manufacturer's instructions (eBioscience or BioLegend).

RORγt = test: Binding of transcription/co-factors to RORγt or RORE oligonucleotides after treatment (data not shown); assay type: cell-based
HaCaT keratinocytes = test: IL-17-driven HaCaT keratinocyte responses (Th17 supernatants or spiked cytokines), qRT-PCR; assay type: cell-based, human; conditions: supernatants of Th17 cells treated with 10 μM vs 0.13 nM, 24 h
Description: The HaCaT keratinocyte cell line was purchased from AddexBio and was maintained in RPMI 1640 medium supplemented with Glutamax, Penicillin/Streptomycin (all from Gibco) and 10% FCS (PAA). Normal primary human epidermal keratinocytes (NHEKs) were purchased from Lonza and PromoCell, respectively. Cells were cultured in Keratinocyte basal growth medium (KBM; Lonza) containing KGM2 growth supplements including insulin, human epidermal growth factor, bovine pituitary extract, hydrocortisone, epinephrine, transferrin, and gentamicin/amphotericin B (Lonza). HaCaT cells were incubated in a 96-well-microtiter plate (2 × 10^4 cells/well) with Th17 cytokine-containing supernatants obtained from total CD4^+ T-cells that were polarized for 72 h in the presence of anti-CD3/CD28 antibodies and a Th17 polarization cocktail as described above. […] Cytokine concentrations in supernatants were determined from representative experiments and they contained approximately 150 pg/ml or 600 pg/ml of IL-17 in 10 μM or in 0.13 nM treated samples, respectively. The TNF-α concentration was similar in supernatants exposed to low or high Cpd A concentrations and was 4 ng/ml. To study the impact of the IL-17 cytokine, IL-17 in the supernatants and in the spike-in cocktails was neutralized by a 0.5 h pre-incubation with an IL-17-specific antibody [0.75 μg/ml; Secukinumab (Cosentyx®, Novartis)]. All cultures were incubated in triplicates and after a 24 h incubation period, HaCaT cells (6 × 10^4 cells/sample) and NHEKs (1 × 10^5 cells/sample) were harvested and further processed for qRT-PCR analysis.
Total RNA from human Th17 cells (6 × 10^5 cells), RORγt-RORE HUT78 cells (4 × 10^5 cells) and HaCaT cells (6 × 10^4 cells) was extracted using RNeasy kit including a DNAse I digestion step according to the manufacturer‘s protocol (Qiagen). Frozen skin biopsies (8 mm punches) were resuspended in RLT buffer (Qiagen) containing 1% β-mercaptoethanol and homogenized using a Precellys-Cryolys device (Bertin Instruments) according to the manufacturer's instructions. cDNAs were prepared with the High Capacity cDNA Reverse Transcription Kit (Applied Biosystems). Quantitative RT-PCR analysis was performed using a TaqManViiA7 (Applied Biosystems). All runs were accompanied by the internal control gene human β-glucoronidase (Gus) (431088E). The samples were run in triplicate or in hexaplicate and normalized to Gus using the ΔΔCt method to provide arbitrary units representing relative expression levels. The following Taqman probes were used for RT-PCR (Thermo Scientific): RORC (Hs01076112_m1), IL17A (Hs00936345_m1), IL22 (Hs01574154_m1), IL26 (Hs00218189_m1), IL23R (Hs00332759_m1), CCR6 (Hs00218189_m1), NFKBIZ (Hs00355476_m), DEFB4A (Hs00823638_m1), IL36G (Hs00219742_m1), and CCL20 (Hs00355476_m1).

[1] = system: skin-resident immunocompetent cells in human skin biopsies; test: Ex vivo full-thickness human skin biopsy culture with Th17-inducing cocktail
Description: Full-thickness skin punch biopsies (8 mm diameter) were taken from surgical discards. Briefly, subcutaneous fat was removed from the skin ranging in size between 150 and 200 cm^2 and 8 mm punches were obtained. Samples were incubated in IMDM medium supplemented with Glutamax, 10% FCS, 1% non-essential amino acids, 1 mM Sodium pyruvate, Penicillin/Streptomycin and Amphotericin B (2.5 μg/ml). Incubations were done in the presence of various concentrations of Cpd A or DMSO vehicle control together with a Th17-inducing cocktail consisting of IL-6 (20 ng/ml), TGF-β1 (5 ng/ml), IL-1β (10 ng/ml), IL-23 (10 ng/ml), anti-IL-4/IFNγ (5 μg/ml), and anti-CD3/CD28 antibodies (1 μg/ml). On day 4, supernatants were harvested and analyzed for IL-17 cytokine expression, whereas skin punch biopsies were snap frozen, stored at −80°C and further processed for qRT-PCR analysis.
Total RNA from human Th17 cells (6 × 10^5 cells), RORγt-RORE HUT78 cells (4 × 10^5 cells) and HaCaT cells (6 × 10^4 cells) was extracted using RNeasy kit including a DNAse I digestion step according to the manufacturer‘s protocol (Qiagen). […] Quantitative RT-PCR analysis was performed using a TaqManViiA7 (Applied Biosystems). […]

RORβ = system: T1, RORβ; test: RORβ LBD-GAL4 reporter gene assay in Jurkat cells; assay type: cell-based, human
T1 construct: RORα and RORβ we performed LBD-GAL4 reporter gene assays; expressed in transfected cells; host or cells: Jurkat cells stably carrying pGL4.35
Description: Selectivity against other ROR family members was assessed in a GAL4 reporter gene assay as previously described ([44]). Briefly, Jurkat cells stably expressing the pGL4.35 plasmid (Promega) containing nine GAL4 binding sites inducing the transcription of the luciferase reporter gene were transiently transfected with the human RORα, RORβ or RORγt-LBD/GAL4-DBD constructs. After 24 h post-transfection, cells were incubated with Cpd A for an additional 24 h before luciferase activity was determined using an EnVision Multilabel Plate Reader (Perkin Elmer).

Compound: Cc1ccc(C(=O)Nc2cn3ccnc3c(CN3CCN(c4noc(C(C)(C)C)n4)[C@@H](C)C3)c2C)cn1 [Cpd A, (S)-N-(8-((4-(5-(tert-butyl)-1,2,4-oxadiazol-3-yl)-3-methylpiperazin-1-yl)methyl)-7-methylimidazo[1,2-a]pyridin-6-yl)-6-methylnicotinamide]
- IL-17 concentration in Th17 cell supernatants (total human CD4+ T-cells; 0.13 nM (pharmacologically inactive concentration)): 600 pg/mL
- IL-17 concentration in Th17 cell supernatants (total human CD4+ T-cells; 10 μM (active concentration)): 150 pg/mL
- pIC50 (total human CD4+ T-cells; Homo sapiens, T-cell, total CD4+ T-cells, Th17 polarization 72 h, ELISA, read-out: IC50, IL-17A secretion): 7.41
- TNF-α concentration in Th17 cell supernatants (total human CD4+ T-cells; similar at low or high compound concentrations): 4 ng/mL
- binding of TAZ, steroid receptor co-activators, p300, HIF-1α, Runx to RORγt or RORE oligonucleotides (RORγt): remained intact
- IL-17 signature genes (NFKBIZ, DEFB4A, CCL20, IL36G) in HaCaT (HaCaT keratinocytes): marked reduction
- h-BD2 (DEFB4A) gene expression in skin punches [1]: significantly down-regulated
- IL-17A secretion by skin-resident immunocompetent cells ([1]; ex vivo skin punches, various concentrations): concentration-dependent inhibition
- activity toward RORβ (LBD-GAL4 reporter) (RORβ): lacked activity
